Source: ChEMBL document CHEMBL3822420, “New peptide deformylase inhibitors design, synthesis and pharmacokinetic assessment” (Bioorg Med Chem Lett, 2016)
Values after ≈ are worked out from the molar mass of the structure shown.

What was measured:
[1] = (§1) AUC (0 to t) in Sprague-Dawley rat at 2 mg/kg, iv; format: ADME, organism-based; details: Sprague-Dawley, in vivo
[2] = Tmax in Sprague-Dawley rat at 2 mg/kg, iv; format: ADME, organism-based; details: in vivo
[3] = Tmax in Sprague-Dawley rat at 10 mg/kg, po; format: ADME, organism-based; details: in vivo
[4] = Cmax in Sprague-Dawley rat at 2 mg/kg, iv; format: ADME, organism-based; set-up: dose 2 mg/kg, route intravenous; details: in vivo
[5] = Cmax in Sprague-Dawley rat at 10 mg/kg, po; format: ADME, organism-based; set-up: dose 10 mg/kg, route oral; details: in vivo
Staphylococcus aureus [6] = assay: Antibacterial activity against methicillin-resistant Staphylococcus aureus 14-1; format: functional
Staphylococcus aureus [7] = assay: Antibacterial activity against methicillin-resistant Staphylococcus aureus 14-2; format: functional
Staphylococcus aureus [8] = assay: Antibacterial activity against methicillin-resistant Staphylococcus aureus 14-4; format: functional
Staphylococcus aureus [9] = assay: Antibacterial activity against methicillin-resistant Staphylococcus aureus 14-5; format: functional
Staphylococcus aureus [10] = assay: Antibacterial activity against methicillin-sensitive Staphylococcus aureus 14-1; format: functional
Staphylococcus aureus [11] = assay: Antibacterial activity against methicillin-sensitive Staphylococcus aureus 14-2; format: functional
Staphylococcus aureus [12] = assay: Antibacterial activity against methicillin-sensitive Staphylococcus aureus 14-3; format: functional
Staphylococcus aureus [13] = assay: Antibacterial activity against methicillin-sensitive Staphylococcus aureus 14-4; format: functional
[14] = tested on: Staphylococcus epidermidis; assay: Antibacterial activity against methicillin-resistant Staphylococcus epidermidis 14-1; format: functional
[15] = tested on: Staphylococcus epidermidis; assay: Antibacterial activity against methicillin-resistant Staphylococcus epidermidis 14-2; format: functional
[16] = tested on: Staphylococcus epidermidis; assay: Antibacterial activity against methicillin-resistant Staphylococcus epidermidis 14-3; format: functional
[17] = tested on: Staphylococcus epidermidis; assay: Antibacterial activity against methicillin-resistant Staphylococcus epidermidis 14-4; format: functional
[18] = tested on: Staphylococcus epidermidis; assay: Antibacterial activity against methicillin-sensitive Staphylococcus epidermidis 14-1; format: functional
[19] = tested on: Staphylococcus epidermidis; assay: Antibacterial activity against methicillin-sensitive Staphylococcus epidermidis 14-2; format: functional
[20] = tested on: Staphylococcus epidermidis; assay: Antibacterial activity against methicillin-sensitive Staphylococcus epidermidis 14-3; format: functional
Enterococcus faecalis [21] = assay: Antibacterial activity against Enterococcus faecalis 14-1; format: functional
Enterococcus faecalis [22] = assay: Antibacterial activity against Enterococcus faecalis 14-2; format: functional
Enterococcus faecalis [23] = assay: Antibacterial activity against Enterococcus faecalis 14-3; format: functional
Enterococcus faecalis [24] = assay: Antibacterial activity against Enterococcus faecalis 14-5; format: functional
Escherichia coli [25] = assay: Antibacterial activity against Escherichia coli 14-1; format: functional
Escherichia coli [26] = assay: Antibacterial activity against Escherichia coli 14-2; format: functional
Escherichia coli [27] = assay: Antibacterial activity against Escherichia coli 14-1 expressing extended-spectrum beta-lactamase; format: functional
Escherichia coli [28] = assay: Antibacterial activity against Escherichia coli 14-2 expressing extended-spectrum beta-lactamase; format: functional
[29] = AUC (0 to t) in Sprague-Dawley rat at 10 mg/kg, po; format: ADME, organism-based; details: in vivo
[30] = (§2) AUC (0 to infinity) in Sprague-Dawley rat at 2 mg/kg, iv; format: ADME, organism-based; set-up: dose 2 mg/kg, route intravenous, time infinity; details: Sprague-Dawley, in vivo
[31] = (§3) AUC (0 to infinity) in Sprague-Dawley rat at 10 mg/kg, po; format: ADME, organism-based; set-up: dose 10 mg/kg, time infinity, route oral; details: Sprague-Dawley, in vivo
[32] = Half life in Sprague-Dawley rat at 2 mg/kg, iv; format: ADME, organism-based; details: in vivo
[33] = (§4) Half life in Sprague-Dawley rat at 10 mg/kg, po; format: ADME, organism-based; details: Sprague-Dawley, in vivo
[34] = MRT (0 to t) in Sprague-Dawley rat at 2 mg/kg, iv; format: ADME, organism-based; details: in vivo
[35] = MRT (0 to t) in Sprague-Dawley rat at 10 mg/kg, po; format: ADME, organism-based; details: in vivo
[36] = Clearance in Sprague-Dawley rat at 2 mg/kg, iv; format: ADME, organism-based; details: in vivo
[37] = (§5) Clearance in Sprague-Dawley rat at 10 mg/kg, po; format: ADME, organism-based; details: Sprague-Dawley, in vivo
[38] = Volume of distribution at steady state in Sprague-Dawley rat at 2 mg/kg, iv; format: ADME, organism-based; details: in vivo, read-out: Vdss
Rattus norvegicus [39] = assay: Volume of distribution at steady state in Sprague-Dawley rat at 10 mg/kg, po; format: ADME, organism-based; details: in vivo
[40] = Oral bioavailability in Sprague-Dawley rat at 10 mg/kg; format: ADME, organism-based; details: in vivo
Rattus norvegicus [41] = assay: as §3; format: ADME, organism-based; set-up: dose 10 mg/kg, time infinity, route oral; details: in vivo
Rattus norvegicus [42] = assay: as §4; format: ADME, organism-based; details: in vivo
Rattus norvegicus [43] = assay: as §5; format: ADME, organism-based; details: in vivo
Rattus norvegicus [44] = assay: as §1; format: ADME, organism-based; details: in vivo
Rattus norvegicus [45] = assay: as §2; format: ADME, organism-based; set-up: dose 2 mg/kg, route intravenous, time infinity; details: in vivo

Structure (SMILES)	Tmax [2]	Tmax [3]	Cmax [4]	Cmax [5]	MIC (Staphylococcus aureus [9])	MIC (Staphylococcus aureus [10])	MIC (Staphylococcus aureus [11])	MIC (Staphylococcus aureus [12])	MIC (Staphylococcus aureus [13])	MIC [17]	MIC [18]	MIC [19]	MIC [20]	MIC (Enterococcus faecalis [21])	MIC (Enterococcus faecalis [22])	MIC (Enterococcus faecalis [23])	MIC (Enterococcus faecalis [24])	MIC (Escherichia coli [25])	MIC (Escherichia coli [26])	MIC (Escherichia coli [27])	other results
CCCC[C@H](CN(O)C=O)C(=O)N1CC2(CC2)C[C@H]1c1nc2ccccc2[nH]1	4.8 min	0.25 h	1740 ng/mL	1680 ng/mL	0.5 µg/mL (≈ 1.3 µM)	2 µg/mL (≈ 5.2 µM)	2 µg/mL (≈ 5.2 µM)	2 µg/mL (≈ 5.2 µM)	2 µg/mL (≈ 5.2 µM)	1 µg/mL (≈ 2.6 µM)	0.5 µg/mL (≈ 1.3 µM)	2 µg/mL (≈ 5.2 µM)	0.5 µg/mL (≈ 1.3 µM)	8 µg/mL (≈ 20.8 µM)	8 µg/mL (≈ 20.8 µM)	8 µg/mL (≈ 20.8 µM)	64 µg/mL (≈ 166 µM)	32 µg/mL (≈ 83.2 µM)	32 µg/mL (≈ 83.2 µM)	0.5 µg/mL (≈ 1.3 µM)	AUC(0-t) [1]: 1260 ng·h/mL; MIC (Staphylococcus aureus [6]): 1 µg/mL (≈ 2.6 µM); MIC (Staphylococcus aureus [7]): 2 µg/mL (≈ 5.2 µM); MIC (Staphylococcus aureus [8]): 2 µg/mL (≈ 5.2 µM); MIC [14]: 1 µg/mL (≈ 2.6 µM); MIC [15]: 1 µg/mL (≈ 2.6 µM); MIC [16]: 0.5 µg/mL (≈ 1.3 µM); MIC (Escherichia coli [28]): 32 µg/mL (≈ 83.2 µM); AUC(0-t) [29]: 2340 ng·h/mL; AUC(0-inf) [30]: 1270 ng·h/mL; AUC(0-inf) [31]: 2380 ng·h/mL; half-life [32]: 5.23 h; half-life [33]: 4.46 h; MRT last [34]: 1.91 h; MRT last [35]: 4.13 h; clearance [36]: 26.4 mL/min/kg; CL/F [37]: 70.9 mL/min/kg; Vd [38]: 3 L/kg; Vdss (Rattus norvegicus [39]): 27.4 L/kg; bioavailability [40]: 37%
CCCC[C@H](CN(O)C=O)C(=O)N1CC2(CC2)C[C@H]1C(=O)Nc1ccc(C)c(Nc2nccc(-c3cccnc3)n2)c1	4.8 min	0.25 h	1080 ng/mL	100 ng/mL	< 0.008 µg/mL	0.015 µg/mL (≈ 0.0262 µM)	0.015 µg/mL (≈ 0.0262 µM)	0.015 µg/mL (≈ 0.0262 µM)	0.015 µg/mL (≈ 0.0262 µM)	< 0.008 µg/mL	0.015 µg/mL (≈ 0.0262 µM)	< 0.008 µg/mL	< 0.008 µg/mL	0.03 µg/mL (≈ 0.0525 µM)	0.015 µg/mL (≈ 0.0262 µM)	0.03 µg/mL (≈ 0.0525 µM)	> 128 µg/mL	> 128 µg/mL	> 128 µg/mL	4 µg/mL (≈ 7 µM)	AUC(0-t) [1]: 881 ng·h/mL; MIC (Staphylococcus aureus [6]): 0.015 µg/mL (≈ 0.0262 µM); MIC (Staphylococcus aureus [7]): 0.015 µg/mL (≈ 0.0262 µM); MIC (Staphylococcus aureus [8]): < 0.008 µg/mL; MIC [14]: < 0.008 µg/mL; MIC (Escherichia coli [28]): > 128 µg/mL; AUC(0-t) [29]: 126 ng·h/mL; AUC(0-inf) [30]: 892 ng·h/mL; AUC (Rattus norvegicus [41]): 134 ng·h/mL; half-life [32]: 3.6 h; t1/2 (Rattus norvegicus [42]): 2.24 h; MRT last [34]: 1.15 h; MRT last [35]: 3.32 h; clearance [36]: 37.7 mL/min/kg; CL (Rattus norvegicus [43]): 5.57 mL/min/kg; Vd [38]: 2.6 L/kg; Vdss (Rattus norvegicus [39]): 1772 L/kg; bioavailability [40]: 3%
CCCC[C@H](CN(O)C=O)C(=O)N1CC2(CC2)C[C@H]1C(=O)Nc1ncc(C)s1	4.8 min	0.58 h	1090 ng/mL	630 ng/mL	< 0.008 µg/mL	< 0.008 µg/mL	< 0.008 µg/mL	< 0.008 µg/mL	< 0.008 µg/mL	< 0.008 µg/mL	< 0.008 µg/mL	< 0.008 µg/mL	< 0.008 µg/mL	0.125 µg/mL (≈ 0.306 µM)	0.5 µg/mL (≈ 1.22 µM)	0.5 µg/mL (≈ 1.22 µM)	0.25 µg/mL (≈ 0.612 µM)	32 µg/mL (≈ 78.3 µM)	32 µg/mL (≈ 78.3 µM)	0.125 µg/mL (≈ 0.306 µM)	AUCt (Rattus norvegicus [44]): 653 ng·h/mL; MIC (Escherichia coli [28]): 32 µg/mL (≈ 78.3 µM); AUC(0-t) [29]: 2080 ng·h/mL; AUC (Rattus norvegicus [45]): 653 ng·h/mL; AUC(0-inf) [31]: 2130 ng·h/mL; half-life [32]: 1.14 h; half-life [33]: 5 h; MRT last [34]: 1.74 h; MRT last [35]: 4.42 h; clearance [36]: 23.5 mL/min/kg; CL/F [37]: 82.3 mL/min/kg; Vd [38]: 3.6 L/kg; Vdss (Rattus norvegicus [39]): 36.5 L/kg; bioavailability [40]: 30%
